Read-outs that look alike come from different tables or passages of the source.
How the values were obtained:
rats [1] = assay: Loss of righting reflexes (LORR) assay in rats, ED50 by up and down method; format: in vivo, rat; settings: Rattus norvegicus, tail vein, class symbols
Method: The Anesthetic Activity of the Compounds was Assessed in Rats Using a Loss of Righting Reflexes (LORR) Assay
(§1) Adult male Sprague-Dawley rats (250-300 g) were selected for the experiment. […] The anesthesia effects of the compounds were assessed in rats using a LORR assay and a period >30 s was considered as an indicator of general anesthesia. Then the up and down method was used to determine 50% effective dose (ED50). The drugs were administered through the tail vein of rats in a volume of 0.6 mL and at a rate of 0.1 mL/s.

rats [2] = system: rats
Method: as §1

rats [3] = assay: Pharmacological characteristics at equivalent doses (2×ED50) in rats; settings: 2×ED50, tail vein; for Adverse reactions: Red urine (incidence): DMSO solution (DMSO alone 10/10); for Onset time: time of LORR; for Adverse reactions: Tremor (incidence): animals affected/animals
Method: Comparison of Pharmacological Characteristics of the Compounds at Equivalent Doses (2×ED50) in Rats
Adult male Sprague-Dawley rats (250-300 g) were selected for the experiment (n=8). […] The drugs were administered at a dose twice their ED50 through the tail vein of rats in a volume of 0.6 mL and at a rate of 0.1 mL/s. In addition, the time of LORR was recorded as the onset time of anesthesia. […] Furthermore, the duration of the pharmacological effects is sufficient to meet the time requirements for rapid induction of general anesthesia and for diagnostic examinations, some short invasive clinical examinations, or operations.

[4] = system: secretion of corticosterone, H295R cell line; assay: cells; format: cell-based; settings: for EC50: read-out: EC50 (Corticosterone)
Method: (§2) The Effects of the Compounds on Adrenocortical Function In Vitro Test
(§3) Then secretion of the cortisol and corticosterone in the supernatant, was measured using HPLC-MS/MS method to determine whether the compounds of the present invention had adrenotoxic potential.

[5] = system: secretion of cortisol, H295R cell line; assay: cells; format: cell-based; settings: for EC50: read-out: EC50 (Cortisol)
Method: as §2, §3

rats [6] = format: in vivo, rat; settings: rats of the MAP/HR figures, 2×ED50, tail vein; same value in min
Method: The Effects of the Compounds on the Circulatory Function were Measured in Rats Using a Small Animal Implanted Physiological Signal Telemetry System
The anesthetic activity of the compounds was assessed in rats using a LORR assay and the up and down method was used to determine ED50. […] A small animal implantable physiological signal telemetry system from DSI (Data Science International, Inc.) was used to measure the changes in heart rate (HR) and blood pressure in rats during 30 min after administration. Then mean arterial pressure (MAP) and HR were used as representative indicators to determine hemodynamic stability of the compounds of the present invention in rats.
A small animal implantable physiological signal telemetry system from DSI (Data Science International, Inc.) including implants (RATHD-521, DSI, United States), receiver boards (RPC-1, DSI, United States), signal conversion devices (DEM, DSI, USA), perfusion glue (DSI, USA), fibrin membrane (DSI, USA), etc.
First, animal models were established. A left ventricular catheter, an abdominal aortic catheter and ECG wires were placed into rats. At least one week after surgery, data were recorded.
Administration procedure: rats were put into a restraint device with a 20 G indwelling catheter placed into a lateral tail vein. After administration of 0.2 mL heparin, a pre-filled extension tube was attached and taped to the tail vein to secure the extension tube. Then the rats were removed from the restraint device to a cage before placing them together on the signal receiver. […] Finally, the pharmacological effects, adverse reactions, and behavioural manifestations of the rats were observed and recorded
Data collection: After setting the data collection parameters on the software, the power of the implant was turned on to start data collection. In this experiment, data recording frequency was set to 15 s. Data collection was continuously recorded for 30 min before and after administration of the drugs in rats. After data acquisition, the test was stopped.

rats [7] = system: rats; remark: listed apart in the source
Method: Pharmacological Effects of the Compounds on Continuous Infusion in Rats
Adult male Sprague-Dawley rats with body weight ranging from 250 to 300 gm were selected for continuous infusion test. […] Time to recovery of righting reflex from stopping infusion, and time to fully awake from stopping infusion were recorded.

rats [8] = format: in vivo, rat; settings: rats of the MAP/HR figures, 2×ED50, tail vein
[9] = emulsion, continuous infusion at 2×MIR
[10] = H295R cell line, 0.1-10000 nM, HPLC-MS/MS, Table D3
[11] = continuous tail vein infusion at 2×MIR, LORR maintained 1 hour, Table D4
[12] = H295R cell line, 0.1-10000 nM, HPLC-MS/MS, Table E3
[13] = continuous tail vein infusion at 2×MIR, LORR maintained 1 hour, Table E4

| Compound | ED50 (rats [1]) | Approximate therapeutic index (rats [2]) | Minimal lethal dose (rats [2]) | Righting reflex duration (rats [3]) | Adverse reactions: Red urine (incidence) (rats [3]) | Onset time (rats [3]) | EC50 ([4]; Homo sapiens, NCI-H295R) | EC50 ([5]; Homo sapiens, NCI-H295R) | recovery time of the test animals' righting reflex (rats [6]) | recovery time of the test animals' righting reflex (rats [8]) | further results |
| --- | --- | --- | --- | --- | --- | --- | --- | --- | --- | --- | --- |
| C[C@H](c1ccccc1)n1cncc1C(=O)OCC1(C)CSC1 [Compound B8] | 0.5 to 1 mg/kg | >10 | >10 mg/kg | 5.00 ± 1.25 min | Red urine (8/8) | 0.13 ± 0.05 min | – | – | – | – | – |
| CCCC1(COC(=O)c2cncn2[C@H](C)c2ccccc2)COC1 [Compound B10] | – | – | – | – | – | – | > 1 µM | > 1 µM | 1.35 min | 81 s | Corticosterone as an indicator to determine the presence of inhibition ([4]; H295R, Table B3): 0; Cortisol as an indicator to determine the presence of inhibition ([5]; H295R, Table B3): 0; Recovery time after stopping infusion (rats [7]; after 1 hour infusion at 2×MIR): 9 to 12 min; Adverse reactions: Tremor (incidence) (rats [7]; continuous infusion 2×MIR): Tremor (3/6); Onset time (rats [7]; [9]): 3 to 4 min |
| CCC1(OC(=O)c2cncn2[C@H](C)c2ccccc2)COC1 [Compound B18] | – | – | – | – | – | – | > 1 µM | > 1 µM | 4.65 min | 279 s | Corticosterone as an indicator to determine the presence of inhibition ([4]; H295R, Table B3): 0; Cortisol as an indicator to determine the presence of inhibition ([5]; H295R, Table B3): 0; Recovery time after stopping infusion (rats [7]; after 1 hour infusion at 2×MIR): 15 to 18 min; Adverse reactions: Tremor (incidence) (rats [7]; continuous infusion 2×MIR): Tremor (4/6); Onset time (rats [7]; [9]): 3 to 4 min |
| C[C@H](c1ccccc1)n1cncc1C(=O)OC1(CC2CO2)COC1 (stereo partly shown) [Compound B22] | 0.5 to 1 mg/kg | >10 | >17 mg/kg | 1.24 ± 0.12 min | 8/8 | 0.92 ± 0.14 min | – | – | – | – | Adverse reactions: Tremor (incidence) (rats [3]): 4/8 |
| C[C@H](c1ccccc1)n1cncc1C(=O)OC1(C)COC1 [Compound B28] | 0.1 to 0.5 mg/kg | >13 | >10 mg/kg | 3.32 ± 0.72 min | Red urine (8/8) | 0.29 ± 0.15 min | – | – | – | – | – |
| C[C@H](c1ccccc1)n1cncc1C(=O)SCC1COC1 [Compound B29] | – | – | – | – | – | – | > 10 µM | > 10 µM | 1.87 min | 112 s | Corticosterone as an indicator to determine the presence of inhibition ([4]; H295R, Table B3): 0; Cortisol as an indicator to determine the presence of inhibition ([5]; H295R, Table B3): 0; Recovery time after stopping infusion (rats [7]; after 1 hour infusion at 2×MIR): 8 to 10 min; Types and incidence of adverse reactions (rats [7]; continuous infusion 2×MIR, in words): No; Onset time (rats [7]; [9]): 2 to 3 min |
| C=CCC1(OC(=O)c2cncn2[C@H](C)c2ccccc2)CCC1 [Compound D12] | 0.5 to 1 mg/kg | >14 | >10 mg/kg | 2.15 ± 1.03 min | Red urine (8/8) | 0.32 ± 0.09 min | – | – | – | – | – |
| [2H]C#CC(C)(C)OC(=O)c1cncn1[C@H](C)c1ccccc1 [Compound D16] | 0.5 to 1 mg/kg | >12 | >6 mg/kg | 1.17 ± 0.98 min | Red urine (8/8) | 0.36 ± 0.19 min | – | – | – | – | – |
| C=CC(CC)(CC)OC(=O)c1cncn1[C@H](C)c1ccccc1 [Compound D24] | 0.5 to 1 mg/kg | >13 | >7 mg/kg | 0.80 ± 0.20 min | Red urine (8/8) | 0.56 ± 0.31 min | – | – | – | – | – |
| C=C(C)CC1(OC(=O)c2cncn2[C@H](C)c2ccccc2)CCC1 [Compound D26] | 0.1 to 0.5 mg/kg | >10 | >4 mg/kg | 1.36 ± 0.52 min | urine (8/8) | 0.56 ± 0.19 min | – | – | – | – | Adverse reactions: Myoclonus (incidence) (rats [3]): Myoclonus (3/8), Red |
| C#CC1(OC(=O)c2cncn2[C@H](C)c2ccccc2)CSC1 [Compound D27] | 0.5 to 1 mg/kg | >10 | >10 mg/kg | 2.15 ± 1.03 min | Red urine (8/8) | 0.32 ± 0.09 min | – | – | – | – | – |
| CC#CC1(OC(=O)c2cncn2[C@H](C)c2ccccc2)CSC1 [Compound D29] | 0.5 to 1 mg/kg | >13 | >10 mg/kg | 1.19 ± 0.64 min | (8/8) | 0.73 ± 0.10 min | – | – | – | – | Adverse reactions: Tremor (incidence) (rats [3]): Tremor (3/8), Red urine |
| CC#CC1(OC(=O)c2cncn2[C@H](C)c2ccccc2)CCSC1 (stereo partly shown) [Compound D30] | 0.5 to 1 mg/kg | >11 | >5 mg/kg | 1.32 ± 0.61 min | urine (8/8) | 0.43 ± 0.22 min | – | – | – | – | Adverse reactions: Myoclonus (incidence) (rats [3]): Myoclonus (2/8), Red |
| C[C@H](c1ccccc1)n1cncc1C(=O)OC(C)(C)C#CC#CC(C)(C)O [Compound D38] | – | – | – | – | – | – | > 10 µM | > 10 µM | 3.22 min | 193 s | Corticosterone as an indicator to determine the presence of inhibition [4, 10]: 0; Cortisol as an indicator to determine the presence of inhibition [5, 10]: 0; Onset time (rats [7]; [11]): 3 to 4 min; Recovery time after stopping infusion (rats [7]; [11]): 12 to 14 min; Types and incidence of adverse reactions (rats [7]; [11]): Tremor (5/6) |
| C[C@H](c1ccccc1)n1cnc(F)c1C(=O)OC(C)(C)C [Compound E12] | – | – | – | – | – | – | > 10 µM | > 10 µM | 3.57 min | 214 s | Corticosterone as an indicator to determine the presence of inhibition [4, 12]: 0; Cortisol as an indicator to determine the presence of inhibition [5, 12]: 0; Onset time (rats [7]; [13]): 2 to 3 min; Recovery time after stopping infusion (rats [7]; [13]): 11 to 23 min; Types and incidence of adverse reactions (rats [7]; [13]): Tremor (2/6) |
| CC(OC(=O)c1c(F)ncn1C(C)c1ccccc1)=C1CCCC1=O (stereo not shown) [Compound E31] | – | – | – | – | – | – | – | – | 1.75 min | 105 s | Corticosterone as an indicator to determine the presence of inhibition [4, 12]: 0; EC50 [4, 12]: > 10 µM; Cortisol as an indicator to determine the presence of inhibition [5, 12]: 0; EC50 [5, 12]: > 10 µM; Onset time (rats [7]; [13]): 3 to 4 min; Recovery time after stopping infusion (rats [7]; [13]): 8 to 11 min; Types and incidence of adverse reactions (rats [7]; [13]): Tremor (3/6) |
| C=C=CC1(OC(=O)c2c(C(F)(F)F)ncn2[C@H](C)c2ccccc2)COC1 [Compound E163] | – | – | – | – | – | – | – | – | 1.58 min | 95 s | Corticosterone as an indicator to determine the presence of inhibition [4, 12]: 0; EC50 [4, 12]: > 10 µM; Cortisol as an indicator to determine the presence of inhibition [5, 12]: 0; EC50 [5, 12]: > 10 µM |
| CCOC(=O)c1c(C(F)(F)F)ncn1[C@H](C)c1ccccc1 [Compound E164] | – | – | – | – | – | – | > 10 µM | > 10 µM | 1.28 min | 77 s | Corticosterone as an indicator to determine the presence of inhibition [4, 12]: 0; Cortisol as an indicator to determine the presence of inhibition [5, 12]: 0 |

Source: US11434205B2, “Substituted imidazole carboxylate derivatives and the use thereof” (priority 2018, dated 2022)
